Measured values published in the NIST ThermoML archive (doi:10.1016/j.fluid.2019.05.006).
± gives the expanded uncertainty stated by the source.

Conditions: 101.33 kPa, Liquid, Falling or rolling sphere viscometry

viscosity (308.15 K): 84.3 ± 1.6 mPa·s
viscosity (318.15 K): 29.4 ± 0.7 mPa·s
viscosity (328.15 K): 14.3 ± 0.6 mPa·s
viscosity (338.15 K): 7.2 ± 0.3 mPa·s
Structure (SMILES): C[N+](C)(C)CCO.NCC(=O)[O-] [2-hydroxy-N,N,N-trimethylethanaminium glycinate]
